For one data set, the system named is Aβ42. Put plainly: Estimation of Aβ42 and Aβ42/Aβ40 ratio in TgSwDI mice using ELISA. The data set is classed as in vivo. The conditions noted are these: o.d., 96 days, TgSwDI mice cortex. As to the method: Female TgSwDI (expresses human APP gene containing Swedish, Dutch, and Iowa mutations) of 5-7 months of age were used for the study. Animals were habituated for handling for one week prior to initiation of dosing. All experiments involving animals were performed in accordance with institutional guidelines for the use and care of animals after approval from the Institutional Animal Ethics Committee (IAEC), Sun Pharma Advanced Research Company (SPARC) Ltd. Mice were housed at an ambient temperature of 25° C. under 12 hours light-dark cycle with free access to food chow and drinking water. Animals were treated with assigned treatments p.o., o.d., for a period of 96 days. […] After completion of treatment phase, mice from each treatment group were perfused with ice-cold phosphate buffered saline (PBS, pH 7.4), brain was excised, cortex was isolated and processed for preparation of lysates as per protocol provided by Invitrogen ELISA kit. Estimation of Aβ42 and Aβ40 were carried out as per the instructions provided by Invitrogen user manual. Ratio of Aβ42/40 was calculated.

Another data set has as its system total Aβ. Put plainly: Total Aβ content in cortex of Tg APP/PS1 mice using ELISA. The data set is classed as in vivo. As for the experimental part:
(§1) Six month old male APP/PS1 mice which show little overt behavioral or pathological phenotype of AD were used. All experiments involving animals were performed in accordance with institutional guidelines for the use and care of animals after approval from the Institutional Animal Ethics Committee (IAEC), Central Animal Facility, Indian Institute of Science. Only male mice were used for the study and were housed at ambient temperature of 25° C. under 12 hours light-dark cycle with free access to food chow and drinking water. All mice were dosed once a day, orally with placebo for Compound 1 at 30 and 45 mg/kg for a period of three months.
(§2) After completion of treatment phase, mice were subjected to behavioural assessment using CFC test, followed by biochemical estimation of brain Aβ using an enzyme-linked immunosorbent assay (ELISA) and Aβ plaque load using Immunohistochemistry (IHC).
The animals were (n=10/treatment) deeply anesthetized with a mixture of xylazine and ketamine (1:8), perfused with 10 mL of 1x saline for 4 minutes, their brains were excised, homogenized immediately in 0.5 mL ELISA buffer, and centrifuged at 5000xg for 15 minutes at 4° C. to precipitate the pellet. Total Aβ was estimated in the cortex of APP/PS1 mice using ELISA assay kit as per the manufacturer instruction.

For the next data set, the system named is K562 cells. In words: In-vitro Cell Proliferation Assay (K562 cells; measure of endogenous Bcr-Abl kinase inhibition). It is filed as cell-based. To be noted: for inhibition at 0.0001 µM: Homo sapiens, read-out: % inhibition (at 0.1 nM), 0.1 nM, cell proliferation of K562 cells. The source says: (For experimental procedure, refer to the ‘416 publication under In-vitro Cell Proliferation Assay heading).

The next data set deals with hERG channel (Homo sapiens, UniProt Q12809). Put plainly: in vitro effect on hERG channel. The conditions noted are these: at a therapeutically effective dose.
Another data set has as its system Tg APP/PS1 mice. Put plainly: Contextual fear conditioning (CFC): freezing behaviour in Tg APP/PS1 mice. The data set is classed as in vivo. To be noted: 24 hours after fear conditioning. As to the method:
as §1, §2
The CFC test was performed using an apparatus from San Diego Instruments (CA, USA). The CFC training context was rectangular in shape, identity of the context was maintained with the presence of distinct odor (2% acetic acid, v/v). The conditioning chamber was cleaned with 70% ethanol before and after each session. […] Contextual fear memory was assessed by returning mice to the training context 24 hours after fear conditioning and analyzing freezing during a test period of 2 minutes. […]

For data set [1], the system named is ECG parameters (QT interval, QTc interval, QTCf interval and heart rate). Put plainly: in vivo effect on ECG parameters in conscious beagle dogs. To be noted: at a therapeutically effective dose.
For data set [2] the test system is unchanged. In words: in vivo effect on ECG parameters in guinea pig. To be noted: at a therapeutically effective dose.
The next data set concerns Aβ plaque. In words: Aβ plaque load (% area fraction) in cortex of Tg APP/PS1 mice using IHC. The data set is classed as in vivo. To be noted: 30 mg/kg orally once a day for three months. As to the method: as §1, §2
Mouse brains (n=5/treatment) were fixed in 4% (w/v) buffered paraformaldehyde (PFA). The brain tissues were processed for paraffin embedding and serial sections ([…]) were cut using microtome (Leica Biosystems Inc., Buffalo Grove, IL, USA). Sections were de-waxed by xylene treatment followed by a brief wash with chloroform to remove the residual xylene. Endogenous peroxidase activity was blocked with methanol containing hydrogen peroxide (3%, v/v) for 30 minutes. […]

Data set [3] in a line: Concentration of compounds in brain and plasma. It is filed as in vivo.
Setting [4] is: 30 mg/kg orally once a day for three months.
Setting [5] is: 45 mg/kg orally once a day for three months.

hERG channel, sequence (Q12809 whole entry): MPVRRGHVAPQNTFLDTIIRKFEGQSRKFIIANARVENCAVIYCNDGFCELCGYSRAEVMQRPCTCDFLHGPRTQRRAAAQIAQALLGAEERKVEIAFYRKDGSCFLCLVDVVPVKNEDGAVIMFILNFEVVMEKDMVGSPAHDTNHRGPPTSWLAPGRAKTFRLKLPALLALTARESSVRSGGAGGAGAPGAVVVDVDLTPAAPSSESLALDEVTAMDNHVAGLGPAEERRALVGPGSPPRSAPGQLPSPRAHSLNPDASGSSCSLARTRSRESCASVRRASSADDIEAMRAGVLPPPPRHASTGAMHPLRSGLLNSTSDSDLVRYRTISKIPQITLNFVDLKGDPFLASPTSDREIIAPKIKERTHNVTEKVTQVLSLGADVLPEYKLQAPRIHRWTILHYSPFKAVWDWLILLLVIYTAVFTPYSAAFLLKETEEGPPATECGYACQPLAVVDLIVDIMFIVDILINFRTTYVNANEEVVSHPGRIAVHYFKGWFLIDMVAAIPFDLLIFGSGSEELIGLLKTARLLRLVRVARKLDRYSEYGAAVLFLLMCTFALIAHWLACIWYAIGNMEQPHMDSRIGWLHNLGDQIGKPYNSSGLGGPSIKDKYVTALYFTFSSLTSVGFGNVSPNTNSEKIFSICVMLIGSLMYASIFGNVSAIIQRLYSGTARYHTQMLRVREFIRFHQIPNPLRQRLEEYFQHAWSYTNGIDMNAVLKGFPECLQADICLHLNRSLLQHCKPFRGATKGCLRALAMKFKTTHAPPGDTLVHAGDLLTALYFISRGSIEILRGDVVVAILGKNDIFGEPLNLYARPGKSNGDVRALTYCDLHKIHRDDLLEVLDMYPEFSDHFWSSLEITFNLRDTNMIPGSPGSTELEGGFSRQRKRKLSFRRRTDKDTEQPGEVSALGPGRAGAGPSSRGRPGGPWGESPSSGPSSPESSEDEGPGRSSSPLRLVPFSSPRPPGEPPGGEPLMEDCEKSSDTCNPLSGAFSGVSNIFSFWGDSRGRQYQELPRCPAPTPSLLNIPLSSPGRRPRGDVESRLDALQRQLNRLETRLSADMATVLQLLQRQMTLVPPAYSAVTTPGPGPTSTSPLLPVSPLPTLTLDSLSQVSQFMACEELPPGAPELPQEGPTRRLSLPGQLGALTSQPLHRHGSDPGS

By inhibition is commonly meant the drop in the measured response relative to a control, in per cent. As for `Cc1ccc(C(=O)NNC(=O)c2c(C)cccc2Cl)cc1C#Cc1cnc2ccccc2c1` [Compound 1, N′-(2-chloro-6-methylbenzoyl)-4-methyl-3-[2-(3-quinolyl)ethynyl]-benzohydrazide], the “effect on Aβ42 content compared to placebo group” value in the data set on Aβ42 (30 mg/kg p.o.) and in the data set on Aβ42 (45 mg/kg p.o.) was “statistically significant” each time. Further, the “Aβ42/Aβ40 ratio, trend over doses” value in the data set on Aβ42 (15, 30, and 45 mg/kg p.o.) is given as “dose-dependent reduction”. The “Aβ42 content, trend over doses” value in the data set on Aβ42 (15, 30, and 45 mg/kg p.o.) was “dose-dependent reduction”. Further, the “total Aβ content in cortex compared to placebo treated group” value in the data set on total Aβ (setting [4]) and with total Aβ (setting [5]) was “significant reduction” each time. In addition, the inhibition at 0.0001 µM with K562 cells is 37%. In addition, the “potency (inhibition of K562 cell proliferation)” value with K562 cells (at 0.1 nM, Compound 1 versus similar compounds from the ‘416 publication) is “significantly higher”. In addition, the “cardiovascular side effects: in vitro effect on hERG channel” value at hERG channel is “devoid of cardiovascular side effects”. Besides, the “% freezing of mice (CFC) compared to placebo treated group” value in the data set with Tg APP/PS1 mice (setting [4]) and with Tg APP/PS1 mice (setting [5]) was “significant increase” each time. Moreover, the “cardiovascular side effects: in vivo effect on ECG parameters (QT, QTc, QTCf interval, heart rate)” value in [1] and in data set [2] was “devoid of cardiovascular side effects” in each case. The “Aβ plaque (% area fraction) in cortex compared to placebo” value in the data set on Aβ plaque is “significantly reduced”. Also, the “higher ratio of brain to plasma concentration compared to nilotinib” value in data set [3] (at 1 hour, versus nilotinib) is on record as “about 40 times”. Further, the “brain penetration compared with dasatinib” value in data set [3] (versus dasatinib) is recorded as “significantly better brain penetration”. In [3] (versus nilotinib or dasatinib), the “ratio of concentration in brain to plasma as compared to nilotinib or dasatinib” value was “significantly higher”.

With `Cc1ccc(C(=O)NNC(=O)c2c(C)cccc2Cl)cc1C#Cc1ccc2ncccc2c1` [Compound 1.10 of the ‘416 publication], the inhibition at 0.0001 µM with K562 cells is 0%.

As to `Cc1cccc(Cl)c1C(=O)NNC(=O)c1ccc(F)c(C#Cc2cnc3ccccc3c2)c1` [Compound 1.21 of the ‘416 publication], the inhibition at 0.0001 µM in the data set on K562 cells came to 6%.

For `Cc1ccc(C(=O)NNC(=O)c2c(C)cccc2Cl)cc1C#Cc1cnc2ccc(Cl)cc2c1` [Compound 1.50 of the ‘416 publication], in the data set on K562 cells, the inhibition at 0.0001 µM was 0%.

As for `Cc1ccc(C(=O)NNC(=O)c2c(C)cccc2Cl)cc1C#Cc1cnc2ccc(F)cc2c1` [Compound 1.55 of the ‘416 publication], the inhibition at 0.0001 µM with K562 cells came out at 0%.

Turning to `Cc1cccc(Cl)c1C(=O)NNC(=O)c1cccc(C#Cc2cnc3ccccc3c2)c1` [Compound 1.59 of the ‘416 publication], the inhibition at 0.0001 µM with K562 cells was 2%.

Take `Cc1cn(-c2cc(NC(=O)c3ccc(C)c(Nc4nccc(-c5cccnc5)n4)c3)cc(C(F)(F)F)c2)cn1` [Nilotinib, nilotinib, reference compound]: the “effect on Aβ42 content compared to placebo group” value in the data set with Aβ42 (30 mg/kg p.o.) is recorded as “no statistically significant reduction”.

The record behind these values is patent US20230301982A1, “N'-(2-CHLORO-6-METHYLBENZOYL)-4-METHYL-3-[2-(3-QUINOLYL)ETHYNYL]-BENZOHYDRAZIDE FOR TREATMENT OF ALZHEIMER'S DISEASE” (SUN PHARMA ADVANCED RESEARCH COMPANY LIMITED, priority 2020, published 2023).
